Assay results taken from US11999806B2, “Broad-spectrum polypeptide against enterovirus and application thereof” (WUHAN INSTITUTE OF VIROLOGY, CHINESE ACADEMY OF SCIENCES, priority 2018, dated 2024).
Values joined by “and” are separate entries in the source; they are usually repeats but may differ in a detail not shown here. Identical values can stand only once. Non-standard residues stand in square brackets, D forms with d. Residues, ends and D or L forms follow the SMILES beside them. No end group written: not given here.

Experiments:
EV71 [1] = experiment: Anti-EV71 efficiency in 293T cells, viral RNA by qRT-PCR; assay type: cell-based, enterovirus 71; settings: for antiviral effect of P2 variants as EV71 inhibitor, in words: FIG. 5, 293T cells, compared with P2
Protocol: • (1) 293T cells, Vero cells and Huh7.5 cells were plated in 24-well plates respectively. • (2) After the cells reached 70%-80% confluence, the MEM medium containing 10% serum was replaced with a MEM medium containing 2% serum (0.5 ml/well), and 5 μl of 10^6 PFU/mL EV71 virus per well was added. • (3) After 1 h, polypeptide P2 was added to different cells at a final concentration of 0.01 μM, 0.1 μM, 1 μM, 10 μM, and 50 μM, respectively. • (4) Samples were collected 24 hours after virus infection, and RNA was extracted with a total RNA extraction kit as follows. • (5) The supernatant in each well was discarded, then 350 μl of TRK Lysis Buffer was added to the well and the plate was shaken on the shaker for 5 minutes. • (6) 350 μl of 70% ethanol (DEPC-treated) was added to the well and the plate was shaken on the shaker for 5 minutes. • (7) The mixture in the well was transferred to a RNA extraction column and centrifuged at 12,000 g for 1 min. • (8) The solution collected in the recovery tube was added back to the column and centrifuged at 12,000 g for 1 min. • (9) RNA washing buffer 1 was added to the column and centrifuged at 12,000 g for 30 s. • (10) RNA washing buffer 2 was added to the column and centrifuged at 12,000 g for 1 min. • (11) Step (10) was repeated once. • (12) The empty column was centrifuged at 12,000 g for 2 min to completely remove residual RNA washing buffer. • (13) 50 μl DEPC-treated H2O was added to the column and centrifuge at 12,000 g for 2 min. • (14) 2 μl RNA sample was used according to one step qRT-PCR kit for fluorescence quantification experiment. […]

EV71 [2] = experiment: Anti-EV71 efficiency in Huh7.5 cells, viral RNA by qRT-PCR; assay type: cell-based, enterovirus 71; settings: read-out: IC50 against EV71 by qRT-PCR
From the text: […]

CVA6 = experiment: Anti-CVA6 effect in Vero cells, qRT-PCR; assay type: cell-based, Coxsackievirus A6; settings: for Virus inhibition rate (%): CVA6 MOI 0.01, Vero cells, 24 h, qRT-PCR
Protocol: • (1) Vero cells were plated in a 24-well cell plate. • (2) After the cells reached 70%-80% confluence, the MEM medium containing 10% serum was replaced with a MEM medium containing 2% serum and CVA6 virus, 0.5 ml per well. MOI of the virus was 0.01. The wells without CVA6 virus was set as control group. • (3) After 1 h, […], respectively. • (4) Samples were collected 24 hours after virus infection, and RNA was extracted with total RNA extraction kit as follows. • (5) The supernatant in the wells was discarded, then 350 μl of TRK Lysis Buffer was added to each well and the plate was shaken on the shaker for 5 minutes. • (6) 350 μl of 70% ethanol (DEPC-treated) was added to the well and the plate was shaken on the shaker for 5 minutes. • (7) The mixture in the well was transferred to a RNA extraction column and centrifuged at 12000 g for 1 min. • (8) The solution collected in the recovery tube was added back to the column and centrifuged at 12000 g for 1 min. • (9) RNA washing buffer 1 was added to the column and centrifuged at 12,000 g for 30 s. • (10) RNA washing buffer 2 was added to the column and centrifuged at 12,000 g for 1 min. • (11) Step (10) was repeated once. • (12) The column was centrifuged at 12,000 g for 2 min to completely remove residual RNA washing buffer. • (13) 50 μl DEPC-treated H2O was added to the column and centrifuge at 12,000 g for 2 min. • (14) 2 μl RNA sample was used according to one step qRT-PCR kit for fluorescence quantification experiment.

Molecule: CCCCCCCCCCCCCCCC(=O)NCCCC[C@H](NC(=O)CCOCCOCCOCCOCCNC(=O)[C@H](CCCCN)NC(=O)[C@H](C)NC(=O)[C@@H]1CCCN1C(=O)[C@@H](NC(=O)[C@@H](NC(=O)[C@H](Cc1c[nH]c2ccccc12)NC(=O)CNC(=O)[C@H](CCC(N)=O)NC(=O)[C@H](CCC(=O)O)NC(=O)[C@H](CCCNC(=N)N)NC(=O)[C@H](CS)NC(=O)[C@H](Cc1ccc(O)cc1)NC(=O)[C@H](CCC(N)=O)NC(=O)[C@H](CCCNC(=N)N)NC(=O)[C@@H](NC(=O)[C@H](CCC(=O)O)NC(=O)[C@@H](N)CCC(=O)O)C(C)C)[C@@H](C)CC)[C@@H](C)CC)C(=O)O [3A-EP-PEG4-PA]
- antiviral effect of P2 variants as EV71 inhibitor, in words (EV71 [1]): improved antiviral effect

Molecule: RRRRRRRREEVRQYCRDQ [P2]
- IC50 (EV71 [2]): 1840 nM
- IC50 (EV71 [1]; 293T cells, read-out: IC50 against EV71 by qRT-PCR): 9680 nM

Molecule: CC[C@@H](C)[C@@H](NC(=O)[C@H]1CCCN1C(C)=O)C(=O)N[C@@H](C(=O)N[C@H](Cc1c[nH]c2ccccc12)C(=O)NCC(=O)N[C@H](CCC(N)=O)C(=O)N[C@H](CCC(=O)O)C(=O)N[C@H](CCCNC(=N)N)C(=O)N[C@H](CS)C(=O)N[C@H](Cc1ccc(O)cc1)C(=O)N[C@H](CCC(N)=O)C(=O)N[C@H](CCCNC(=N)N)C(=O)N[C@@H](C(=O)N[C@H](CCC(=O)O)C(=O)N[C@H](CCC(=O)O)C(=O)N1CCC[C@@H]1C(=O)N1CCC[C@@H]1C(=O)N[C@H](CCCNC(=N)N)C(=O)N[C@H](CCCNC(=N)N)C(=O)N[C@H](CCCNC(=N)N)C(=O)N[C@H](CCC(N)=O)C(=O)N[C@H](CCCNC(=N)N)C(=O)N[C@H](CCCNC(=N)N)C(=O)N[C@H](CCCCN)C(=O)N[C@H](CCCCN)C(=O)N[C@H](CCCNC(=N)N)C(=O)NCC(=O)N[C@H](Cc1ccc(O)cc1)C(N)=O)C(C)C)[C@H](C)CC [3A-EP-DRI]
- antiviral effect of P2 variants as EV71 inhibitor, in words (EV71 [1]): improved antiviral effect

Molecule: CC(=O)N[C@H](CCCNC(=N)N)C(=O)N[C@H](CS)C(=O)N[C@H](Cc1ccc(O)cc1)C(=O)N[C@H](CCC(N)=O)C(=O)N[C@H](CCCNC(=N)N)C(=O)N[C@@H](C(=O)N[C@H](CCC(=O)O)C(=O)N[C@H](CCC(=O)O)C(=O)N1CCC[C@@H]1C(=O)N1CCC[C@@H]1C(=O)N[C@H](CCCNC(=N)N)C(=O)N[C@H](CCCNC(=N)N)C(=O)N[C@H](CCCNC(=N)N)C(=O)N[C@H](CCC(N)=O)C(=O)N[C@H](CCCNC(=N)N)C(=O)N[C@H](CCCNC(=N)N)C(=O)N[C@H](CCCCN)C(=O)N[C@H](CCCCN)C(=O)N[C@H](CCCNC(=N)N)C(=O)NCC(=O)N[C@H](Cc1ccc(O)cc1)C(N)=O)C(C)C [ER-DRI] (Ac-[dR][dC][dY][dQ][dR][dV][dE][dE][dP][dP][dR][dR][dR][dQ][dR][dR][dK][dK][dR]G[dY]-NH2)
- Virus inhibition rate (%) (CVA6; 0.625 μM): 71.8% and 74.9% and 67.5%
- Virus inhibition rate (%) (CVA6; 2.15 μM): 72.6% and 85.3% and 90.4%
- Virus inhibition rate (%) (CVA6; 2.5 μM): 91.3% and 93.4% and 91.7%
- Virus inhibition rate (%) (CVA6; 5 μM): 94.3% and 94.9% and 96.4%
- Virus inhibition rate (%) (CVA6; 10 μM): 91.4% and 97.8% and 97.9%
- effect on CVA6 replication, in words (CVA6; Vero cells): able to inhibit the replication of CVA6
- IC50 (CVA6; Vero cells, read-out: IC50 against CVA6): < 625 nM
